Assay results from EP4741380A1, “ISOXAZOLINE COMPOUND AND USE” (priority 2024, dated 2025).
Where two headings read alike, the source gives them in different places.

Assays:
[1] = test system: mites; test: Mite killing efficacy test with an in vitro model
Method: Mite collection: Live mites were gently picked up from a cage box with cotton swabs or small tweezers, 17-26 live mites per group.
Drug treatment and detection method: 100 µL of a drug solution with a different concentration (drug solution prepared by 3% DMSO solution + 97% water and having a target final concentration of 30 µM) was aspirated with a pipette and added to a 24-well plate for each group, ensuring full contact between the drug and the mites. The mites were separately incubated at normal temperature for 5 min, transferred from each plate to another dry 24-well plate with the top sealed, and air-dried for about 1 h. Mite actions were observed, and the number of dead mites/the total number of mites was recorded. Then, the 24-well plate containing the mites was cultured at room temperature and relatively high humidity. The number of dead mites/the total number of mites was counted separately after 1 h, 2 h, 4 h, 6 h, 8 h, 22 h, and 24 h (time points after drug addition), and mite mortality rates were calculated. The project ended 24 h after drug addition.
At a corresponding time point, a mite mortality rate greater than or equal to 90% is denoted as "+++", a mite mortality rate less than 90% and greater than or equal to 50% is denoted as "++", and a mite mortality rate less than 50% is denoted as "+".

[2] = In vivo pharmacokinetic evaluation in mice; parameters: species or system ICR mice; details: ICR, mouse, plasma; for AUC: read-out: AUC^1-24 h
Method: 1. Drug preparation: 5% DMSO + 10% macrogol 15 hydroxystearate (BASF) + 85% saline (where drug solutions have a final concentration of 1.2 mg/mL for the IV group and 3 mg/mL for the PO group). 2. Experimental animals: Each group included three mice (ICR mice, SPF grade). 3. Administration method: The body weight was measured before administration, and the dose was calculated according to the body weight. The mice were administered through intravenous injection or oral gavage. 4. Blood collection: After administration, blood samples were collected in 0.083 h, 0.25 h, 0.5 h, 1 h, 2 h, 4 h, 6 h, 8 h, and 24 h. The blood samples were collected via the cheek. Each sample included about 0.05 mL of blood anticoagulated with EDTA-2K. The blood samples were placed on wet ice after collection. 5. Sample treatment: The blood samples were placed on ice after collection and centrifuged within 1 h to obtain plasma (centrifugation conditions: 6000 g, 3 min, 2-8°C). Plasma samples were stored in a -80°C refrigerator before analysis. 6. Data processing: Pharmacokinetic parameters were calculated using Phoenix WinNonlin 8.2.0 based on plasma concentration data at different time points.

[3] = 30 µM drug solution, 4 h after drug addition, read-out: Mite Mortality Rate 4 h
[4] = 30 µM drug solution, 24 h after drug addition, read-out: Mite Mortality Rate 24 h
[5] = 30 µM drug solution, 4 h after drug addition
[6] = 30 µM drug solution, 24 h after drug addition

| Compound | mortality at 30 µM [1, 3] [%] | mortality at 30 µM [1, 4] [%] | other results |
| --- | --- | --- | --- |
| Cc1cc(C2=NOC(c3cc(Cl)cc(Cl)c3)(C(F)(F)F)C2)ccc1C(=O)NCC(=O)N1CC(F)(C(F)(F)F)C1 (stereo not shown) [Example 025, 4-(5-(3,5-dichlorophenyl)-5-(trifluoromethyl)-4,5-dihydroisoxazol-3-yl)-N-(2-(3-fluoro-3-(trifluoromethyl)azetidin-1-yl)-2-oxoethyl)-2-methylbenzamide] | < 50 | < 50 |  |
| Cc1cc(C2=NOC(c3cc(Cl)cc(Cl)c3)(C(F)(F)F)C2)ccc1C(=O)NCC(=O)N1CC(F)(CF)C1 (stereo not shown) [Example 026, 4-(5-(3,5-dichlorophenyl)-5-(trifluoromethyl)-4,5-dihydroisoxazol-3-yl)-N-(2-(3-fluoro-3-(fluoromethyl)azetidin-1-yl)-2-oxoethyl)-2-methylbenzamide] | 50 to 90 | > 90 |  |
| Cc1cc(C2=NOC(c3cc(F)cc(Cl)c3)(C(F)(F)F)C2)ccc1C(=O)NCC(=O)NC1(C(F)(F)F)CC1 (stereo not shown) [Example 027, 4-(5-(3-chloro-5-fluorophenyl)-5-(trifluoromethyl)-4,5-dihydroisoxazol-3-yl)-2-methyl-N-(2-oxo-2-((1-(trifluoromethyl)cyclopropyl)amino)ethyl)benzamide] | 50 to 90 | > 90 |  |
| Cc1cc(C2=NOC(c3cc(F)c(Cl)c(Cl)c3)(C(F)(F)F)C2)ccc1C(=O)NCC(=O)NC1(C(F)(F)F)CC1 (stereo not shown) [Example 028, 4-(5-(3,4-dichloro-5-fluorophenyl)-5-(trifluoromethyl)-4,5-dihydroisoxazol-3-yl)-2-methyl-N-(2-oxo-2-((1-(trifluoromethyl)cyclopropyl)amino)ethyl)benzamide] | 50 to 90 | > 90 |  |
| Cc1cc(C2=NOC(c3cc(F)cc(C(F)(F)F)c3)(C(F)(F)F)C2)ccc1C(=O)NCC(=O)NC1(C(F)(F)F)CC1 (stereo not shown) [Example 031, 4-(5-(3-fluoro-5-(trifluoromethyl)phenyl)-5-(trifluoromethyl)-4,5-dihydroisoxazol-3-yl)-2-methy 1-N-(2-oxo-2-((1-(trifluoromethyl)cyclopropyl)amino)ethyl)benzamide] |  |  | Mite Mortality Rate 4 h [1, 5]: +++ (a mite mortality rate greater than or equal to 90% is denoted as "+++"); Mite Mortality Rate 24 h [1, 6]: +++ (a mite mortality rate greater than or equal to 90% is denoted as "+++") |
| Cc1cc(Cl)cc(C2(C(F)(F)F)CC(c3ccc(C(=O)NCC(=O)NC4(C(F)(F)F)CC4)c(C)c3)=NO2)c1 (stereo not shown) [Example 032, 4-(5-(3-chloro-5-methylphenyl)-5-(trifluoromethyl)-4,5-dihydroisoxazol-3-yl)-2-methyl-N-(2-oxo-2-((1-(trifluoromethyl)cyclopropyl)amino)ethyl)benzamide] | < 50 | > 90 |  |
| COc1cc(Cl)cc(C2(C(F)(F)F)CC(c3ccc(C(=O)NCC(=O)NC4(C(F)(F)F)CC4)c(C)c3)=NO2)c1 (stereo not shown) [Example 033, 4-(5-(3-chloro-5-methoxyphenyl)-5-(trifluoromethyl)-4,5-dihydroisoxazol-3-yl)-2-methyl-N-(2-oxo-2-((1-(trifluoromethyl)cyclopropyl)amino)ethyl)benzamide] | < 50 | > 90 |  |
| Cc1cc(C2=NOC(c3cc(Cl)cc(Cl)c3)(C(F)(F)F)C2)ccc1C(=O)N(C)CC(=O)NC1(C(F)(F)F)CC1 (stereo not shown) [Example 034, 4-(5-(3,5-dichlorophenyl)-5-(trifluoromethyl)-4,5-dihydroisoxazol-3-yl)-N,2-dimethyl-N-(2-oxo-2-((1-(trifluoromethyl)cyclopropyl)amino)ethyl)benzamide] | < 50 | > 90 |  |
| Cc1cc(C2=NOC(c3cc(Cl)cc(Cl)c3)(C(F)(F)F)C2)ccc1C(=O)N[C@H](C)C(=O)NC1(C(F)(F)F)CC1 (stereo partly drawn) [Example 035, 4-(5-(3,5-dichlorophenyl)-5-(trifluoromethyl)-4,5-dihydroisoxazol-3-yl)-2-methyl-N-((R)-1-oxo-1-((1-(trifluoromethyl)cyclopropyl)amino)propan-2-yl)benzamide] | < 50 | 50 to 90 |  |
| Cc1cc(C2=NOC(c3cc(Cl)cc(Cl)c3)(C(F)(F)F)C2)ccc1C(=O)N[C@@H](C)C(=O)NC1(C(F)(F)F)CC1 (stereo partly drawn) [Example 036, 4-(5-(3,5-dichlorophenyl)-5-(trifluoromethyl)-4,5-dihydroisoxazol-3-yl)-2-methyl-N-((S)-1-oxo-1-((1-(trifluoromethyl)cyclopropyl)amino)propan-2-yl)benzamide] | < 50 | < 50 |  |
| Cc1cc(C2=NOC(c3cc(Cl)cc(OC(F)(F)F)c3)(C(F)(F)F)C2)ccc1C(=O)NCC(=O)NC1(C(F)(F)F)CC1 (stereo not shown) [Example 037, 4-(5-(3-chloro-5-(trifluoromethoxy)phenyl)-5-(trifluoromethyl)-4,5-dihydroisoxazol-3-yl)-2-met hyl-N-(2-oxo-2-((1-(trifluoromethyl)cyclopropyl)amino)ethyl)benzamide] | 50 to 90 | > 90 |  |
| O=C(CNC(=O)c1ccc(C2=NOC(c3cc(Cl)cc(Cl)c3)(C(F)(F)F)C2)cc1)NC1(C(F)(F)F)CC1 (stereo not shown) [Example 038, 4-(5-(3,5-dichlorophenyl)-5-(trifluoromethyl)-4,5-dihydroisoxazol-3-yl)-N-(2-oxo-2-((1-(trifluor omethyl)cyclopropyl)amino)ethyl)benzamide] | < 50 | > 90 |  |
| Cc1cc(C2=NOC(c3cc(Cl)cc(Cl)c3)(C(F)(F)F)C2)ccc1C(=O)NCC(=O)NC1CC1 (stereo not shown) [Example 39 (Comparative Example 1), N-(2-(cyclopropylamino)-2-oxoethyl)-4-(5-(3,5-dichlorophenyl)-5-(trifluoromethyl)-4,5-dihydroisoxazol-3-yl)-2-methylbenzamide, reference compound] |  |  | mortality at 30 µM ([1]; 4 h, read-out: Mite Mortality Rate 4 h): > 90%; mortality at 30 µM ([1]; 24 h, read-out: Mite Mortality Rate 24 h): > 90%; clearance ([2]; IV (6 mg/kg)): 2.06 mL/min/kg; half-life ([2]; IV (6 mg/kg)): 738 min; AUC ([2]; IV (6 mg/kg)): 37.1 µg·h/mL; C0 ([2]; IV (6 mg/kg), read-out: C0): 7800 ng/mL; half-life ([2]; PO (30 mg/kg)): 708 min; AUC ([2]; PO (30 mg/kg)): 173 µg·h/mL; Cmax ([2]; PO (30 mg/kg), read-out: Cmax): 12300 ng/mL; Tmax ([2]; PO (30 mg/kg), read-out: Tmax): 3.33 h; Vd ([2]; in vivo, IV (6 mg/kg), read-out: Vss): 1.97 L/kg; bioavailability ([2]; PO (30 mg/kg) vs IV (6 mg/kg)): 93.1% |
| Cc1cc(C2=NOC(c3cc(Cl)cc(Cl)c3)(C(F)(F)F)C2)cc(Cl)c1C(=O)NCC(=O)NC1CC1 (stereo not shown) [Example 040, 2-chloro-N-(2-(cyclopropylamino)-2-oxoethyl)-4-(5-(3,5-dichlorophenyl)-5-(trifluoromethyl)-4,5-dihydroisoxazol-3-yl)-6-methylbenzamide] | < 50 | < 50 |  |
| Cc1cc(C2=NOC(c3cc(Cl)cc(Cl)c3)(C(F)(F)F)C2)c(F)cc1C(=O)NCC(=O)NC1CC1 (stereo not shown) [Example 041, N-(2-(cyclopropylamino)-2-oxoethyl)-4-(5-(3,5-dichlorophenyl)-5-(trifluoromethyl)-4,5-dihydroisoxazol-3-yl)-5-fluoro-2-methylbenzamide] | > 90 | > 90 |  |
| Cc1cc(C2=NOC(c3cc(Cl)cc(Cl)c3)(C(F)(F)F)C2)c(F)cc1C(=O)NCC(=O)NCC(F)(F)F (stereo not shown) [Example 042] |  |  | Mite Mortality Rate 4 h [1, 5]: +++ (a mite mortality rate greater than or equal to 90% is denoted as "+++"); Mite Mortality Rate 24 h [1, 6]: +++ (a mite mortality rate greater than or equal to 90% is denoted as "+++") |
| Cc1c(C(=O)NCC(=O)NC2CC2)ccc(C2=NOC(c3cc(Cl)cc(Cl)c3)(C(F)(F)F)C2)c1F (stereo not shown) [Example 043, N-(2-(cyclopropylamino)-2-oxoethyl)-4-(5-(3,5-dichlorophenyl)-5-(trifluoromethyl)-4,5-dihydroisoxazol-3-yl)-3-fluoro-2-methylbenzamide] | < 50 | 50 to 90 |  |
| Cc1c(C(=O)NCC(=O)NCC(F)(F)F)ccc(C2=NOC(c3cc(Cl)cc(Cl)c3)(C(F)(F)F)C2)c1F (stereo not shown) [Example 044] |  |  | Mite Mortality Rate 4 h [1, 5]: +++ (a mite mortality rate greater than or equal to 90% is denoted as "+++"); Mite Mortality Rate 24 h [1, 6]: +++ (a mite mortality rate greater than or equal to 90% is denoted as "+++") |
